Legend:
calcineurin = experiment: Standard test for calcineurin activity; assay type: biochemical; conditions: standard tests
FK binding protein = experiment: Standard test for FK binding protein binding activity; conditions: standard tests
[1] = tested on: human monocytic cell line THP1; experiment: Cytotoxicity, MTT read-out; assay type: cell-based
Protocol: Cytotoxicity is determined using the human monocytic cell line THP1 (5×10^4 cells/well) which are incubated in the presence of IFNgamma (100 U/ml) and LPS (5 microgram/ml) plus test compound (up to 10 micromolar) for 24 to 72 h at 37° C. Living cells are quantified using the colourimetric read-out MTT which measures mitochondrial dehydrogenase enzymatic activity in living cells (Mossman 1983). Macrolides of the invention, e.g. compounds of formula IX and their pharmaceutically acceptable salts, e.g. Sanglifehrins A, B, C and D, have IC50 of about 1000-5000 nM after 24 h incubation in this assay. (Mossman T. J. (1983), Rapid calorimetric assay for cellular growth and survival: application to proliferation and cytotoxic assays, J. Imm. Methods, 65, 55-63).

Row | Substance | inhibition of calcineurin activity (calcineurin) | FK binding protein binding activity (FK binding protein) | IC50 [1]
1 | Sanglifehrin A | do not inhibit calcineurin activity | do not have FK binding protein binding activity | 
2 | Sanglifehrin B | do not inhibit calcineurin activity | do not have FK binding protein binding activity | 1000 to 5000 nM
